Patent CN109223750A, “琥珀酸在防治对虾肠炎中的应用” (South China Sea Fisheries Research Institute Chinese …, priority 2018, dated 2019)
Read-outs that look alike come from different tables or passages of the source.

Key:
TNF-α = conditions: 7 days, versus enteritis model group
[1] = tested on: shrimp intestinal mucosa (对虾 肠道黏膜); conditions: 7 days; for intestinal mucosal damage (histopathology): HE, ×200
[2] = tested on: tilapia-derived Streptococcus agalactiae β-haemolysin/cytolysin (罗非鱼源无乳链球菌β-溶血/溶细胞素); conditions: cited from earlier work
IL-1β = conditions: 7 days, versus enteritis model group
HIF-1α = conditions: through activation of HIF-1α; cited from earlier work
[3] = cited from earlier work
IL-10 = conditions: 7 days, versus enteritis model group
bacteria (细菌) = conditions: by raising bacterial proton motive force; cited from earlier work
NF-κB = conditions: 7 days, versus enteritis model group

O=C(O)CCC(=O)O [琥珀酸]
TNF-α expression (TNF-α; high dose: 1% in feed): 显著降低 | TNF-α expression (TNF-α; low dose: 0.25% in feed): 显著降低 | intestinal mucosal damage (histopathology) ([1]; high dose: 1% succinic acid in basal feed): 肠道黏膜损伤已修复,形态完整,结构清晰 | intestinal epithelial cell height ([1]; high dose: 1% succinic acid in basal feed, versus blank control group and versus low-dose group): 均有明显增加 | intestinal mucosal damage (histopathology) ([1]; low dose: 0.25% succinic acid in basal feed): 肠道黏膜损伤已修复,形态完整,结构清晰 | intestinal epithelial cell height ([1]; low dose: 0.25% succinic acid in basal feed, versus blank control group): 有明显增加 | activity of β-haemolysin/cytolysin [2]: 抑制 | IL-1β expression (IL-1β; high dose: 1% in feed): 显著降低 | IL-1β expression (IL-1β; low dose: 0.25% in feed): 显著降低 | IL-1β secretion, inflammation (HIF-1α): 诱导IL-1β分泌促进炎症 | antibacterial and antioxidant function ([3]; in vivo): 提高 | feed conversion ratio ([3]; shrimp): 降低 | IL-10 expression (IL-10; high dose: 1% in feed): 显著降低 | IL-10 expression (IL-10; low dose: 0.25% in feed): 显著降低 | sensitivity of bacteria to antibiotics (bacteria (细菌)): 能够提高细菌对抗生素的敏感性 | NF-κB expression (NF-κB; high dose: 1% in feed): 显著降低 | NF-κB expression (NF-κB; low dose: 0.25% in feed): 显著降低
